In EPA's ToxRefDB 2:

Tests used:
rat [1] = details: Subchronic oral toxicity in rodents, fischer, Gavage/Intubation, dose end: 13 week, group: systemic
mouse [2] = details: Carcinogenicity; b6c3f1; Oral; Gavage/Intubation; dose end: 103 week; group: systemic; systemic / pathology microscopic / stomach / hyperplasia + systemic / pathology microscopic / stomach / inflammation
rat [3] = details: Sub-acute repeat dose toxicity, fischer, Oral, Gavage/Intubation, dose end: 14 day, group: systemic
rat [4] = details: Carcinogenicity, fischer, Oral, Gavage/Intubation, dose end: 103 week, group: systemic
rat [5] = details: Prenatal developmental toxicity study, sprague dawley, Oral, Gavage/Intubation, dose end: 20 GD
mouse [6] = details: Sub-acute repeat dose toxicity; b6c3f1; Oral; Gavage/Intubation; dose end: 14 day; group: systemic; systemic / in life observation / mortality / mortality
mouse [7] = details: Multigenerational reproductive toxicity study, Other, Oral, Feed, dose end: 90 day
rat [8] = details: Combined chronic toxicity/carcinogenicity, fischer, Oral, Feed, dose end: 2 year, group: systemic
rat [9] = details: Sub-acute repeat dose toxicity, sprague dawley, Oral, Gavage/Intubation, dose end: 36 day, group: systemic
rat [10] = details: Fertility (Segment I); sprague dawley; Oral; Gavage/Intubation; dose end: 1 generation; group: parental; systemic / in life observation / body weight / body weight gain
mouse [11] = details: Carcinogenicity, Oral, Feed, dose end: 720 day, group: systemic
[12] = systemic / pathology microscopic / liver / basophilic focus + systemic / pathology microscopic / liver / hypertrophy + systemic / pathology …
[13] = systemic / pathology gross / intestine large / enlarged + systemic / pathology gross / liver / mottling
[14] = systemic / pathology microscopic / liver / fibrosis + systemic / pathology microscopic / liver / hyperplasia + systemic / pathology …
[15] = systemic / pathology microscopic / liver / pigmentation
[16] = group: developmental, developmental / developmental malformation / bone / ossification sites + systemic / in life observation / body weight / fetal weight
[17] = group: maternal, systemic / in life observation / body weight / body weight gain + systemic / in life observation / food consumption / food consumption + …
[18] = group: parental, systemic / in life observation / mortality / mortality
[19] = group: reproductive, reproductive / reproductive performance / fertility / fertility + reproductive / reproductive performance / mating / mating + reproductive…
[20] = systemic / pathology microscopic / kidney / nephropathy + systemic / pathology microscopic / liver / cytomegaly + systemic / pathology …
[21] = systemic / pathology microscopic / liver / cytomegaly + systemic / in life observation / food consumption / food consumption
[22] = systemic / in life observation / body weight / body weight gain + systemic / in life observation / water consumption / water consumption
[23] = systemic / in life observation / water consumption / water consumption
[24] = systemic / hematology / [other] / [other] + systemic / in life observation / body weight / body weight gain + systemic / in life observation…
[25] = systemic / in life observation / mortality / mortality

C=CCOC(=O)c1ccccc1C(=O)OCC=C [Diallyl phthalate] was tested, and the NOAEL (rat [1]; systemic / in life observation / clinical signs / defecation (diarrhea) + systemic / in life observation / clinical signs / emaciation + …) was 100 mg/kg/day, the LEL (rat [1]; [12]) was 50 mg/kg/day and the LOAEL (rat [1]; [12]) was 200 mg/kg/day. The NEL (rat [1]; [12]) was 25 mg/kg/day, the LEL (mouse [2]) was 150 mg/kg/day and the LOAEL (mouse [2]) was 150 mg/kg/day. It also gave an NEL (mouse [2]) of less than 150 mg/kg/day, an NOAEL (mouse [2]) of less than 150 mg/kg/day and an LEL (rat [3]; [13]) of 50 mg/kg/day. For the same compound, the NEL (rat [3]; [13]) was less than 50 mg/kg/day, the NOAEL (rat [3]; systemic / pathology gross / liver / discolored + systemic / pathology gross / liver / enlarged + systemic / pathology gross / liver / …) was 100 mg/kg/day and the LOAEL (rat [3]; systemic / pathology gross / liver / mottling + systemic / pathology gross / liver / discolored + systemic / pathology gross / liver / …) was 200 mg/kg/day. For the same compound, the LOAEL (rat [4]; [14]) was 100 mg/kg/day, the NOAEL (rat [4]; [14]) was 50 mg/kg/day and the LEL (rat [4]; [15]) was 50 mg/kg/day. The NEL (rat [4]; [15]) was less than 50 mg/kg/day, the LOAEL (rat [5]; [16]) was greater than 250 mg/kg/day and the NEL (rat [5]; [16]) was 150 mg/kg/day. The NOAEL (rat [5]; [16]) was no less than 250 mg/kg/day, the LEL (rat [5]; group: developmental, systemic / in life observation / body weight / fetal weight) was 200 mg/kg/day and the LOAEL (rat [5]; [17]) was greater than 250 mg/kg/day. The NEL (rat [5]; [17]) was 100 mg/kg/day, the NOAEL (rat [5]; [17]) was no less than 250 mg/kg/day and the LEL (rat [5]; group: maternal, systemic / pathology gross / liver / discolored + systemic / pathology gross / liver / mottling) was 150 mg/kg/day. For the same compound, the LEL (mouse [6]) was 400 mg/kg/day, the LOAEL (mouse [6]) was greater than 600 mg/kg/day and the NEL (mouse [6]) was 200 mg/kg/day. It also gave an NOAEL (mouse [6]) of no less than 600 mg/kg/day.
Compound ClC1(Cl)C2(Cl)C3(Cl)C4(Cl)C(Cl)(Cl)C5(Cl)C3(Cl)C1(Cl)C5(Cl)C24Cl (configuration not stated) [Mirex] has an LEL (mouse [7]; [18]) of 0.25 mg/kg/day, an LOAEL (mouse [7]; [18]) greater than 0.25 mg/kg/day and an NEL (mouse [7]; [18]) of less than 0.25 mg/kg/day. It also gave an NOAEL (mouse [7]; [18]) of no less than 0.25 mg/kg/day, an LEL (mouse [7]; [19]) of 0.25 mg/kg/day and an LOAEL (mouse [7]; [19]) greater than 0.25 mg/kg/day. For the same compound, the NEL (mouse [7]; [19]) was less than 0.25 mg/kg/day, the NOAEL (mouse [7]; [19]) was no less than 0.25 mg/kg/day and the LOAEL (rat [8]; [20]) was 1.95 mg/kg/day. The NOAEL (rat [8]; [20]) was 0.75 mg/kg/day, the LEL (rat [8]; [21]) was 0.007 mg/kg/day and the NEL (rat [8]; [21]) was less than 0.007 mg/kg/day.
For CS(=O)(=O)N[C@@H](CCCCN)C(=O)NC[C@H](CC1(C(=O)N[C@@H](Cc2ccc(O)cc2)C(=O)O)CCCC1)C(=O)O [Sampatrilat], the LOAEL (rat [9]; [22]) was greater than 300 mg/kg/day, the NOAEL (rat [9]; [22]) was no less than 300 mg/kg/day and the LEL (rat [9]; [23]) was 30 mg/kg/day. For the same compound, the NEL (rat [9]; [23]) was less than 30 mg/kg/day, the LEL (rat [10]) was 200 mg/kg/day and the LOAEL (rat [10]) was greater than 1000 mg/kg/day. For the same compound, the NEL (rat [10]) was 50 mg/kg/day, the NOAEL (rat [10]) was no less than 1000 mg/kg/day and the LOAEL (mouse [11]; [24]) was greater than 600 mg/kg/day. For the same compound, the NOAEL (mouse [11]; [24]) was no less than 600 mg/kg/day, the LEL (mouse [11]; [25]) was 40 mg/kg/day and the NEL (mouse [11]; [25]) was less than 40 mg/kg/day.
